Source: patent US11214594B2, “Antimicrobial peptide having synergistic antibacterial effect with antibiotics on multidrug resistant bacteria, and use thereof” (priority 2016, dated 2022)
Where a SMILES comes first, the peptide text is derived from it.

Assays:
[1] = system: MDRST 8007; test: Minimal inhibitory concentration (MIC), single agent; assay type: cell-based, Salmonella typhimurium; details: agent alone
Summary of the method: (§1)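 Each strain is brought to 2×10^6 CFU in nutrient-sufficient Mueller-Hinton medium and dispensed into wells. Peptide solutions, stepwise diluted 2:1 in the same medium, are then added. The minimal concentration preventing growth gives the MIC.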

[2] = system: MDRST 8009; assay type: cell-based, Salmonella typhimurium; details: agent alone
Summary of the method: as §1

[3] = system: MDREC 1238; assay type: cell-based, Escherichia coli
Summary of the method: as §1

[4] = system: S. aureus; test: microbe, parasite or virus in culture; assay type: cell-based, Staphylococcus aureus
Summary of the method: as §1

[5] = system: S. epidermidis; test: microbe, parasite or virus in culture; assay type: cell-based, Staphylococcus epidermidis
Summary of the method: as §1

[6] = system: E. coli; test: MIC of antibiotic during combined treatment with antimicrobial peptide; assay type: cell-based, Escherichia coli; details: for Antibiotic MIC, Erythromycin / Antibiotic MIC, Linezolid / Antibiotic MIC, Vancomycin: E. coli
Summary of the method: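 MIC values for mixed peptide plus antibiotic solutions were measured in MH medium.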

[7] = system: A. baumannii; test: MIC of antimicrobial peptide during combined treatment with antibiotic; assay type: cell-based, Acinetobacter baumannii
Summary of the method: (§2)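 Antibiotic MIC came from antibiotic dilutions added to bacteria (2×10^6 CFU/ml, MH medium) already combined with peptide serially diluted 2:1 from its own MIC. Swapping the roles of the two agents gave the peptide MIC.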

[8] = system: MDRAB 12035; test: as above; assay type: cell-based, Acinetobacter baumannii
Summary of the method: as §2

[9] = system: MDRAB 12036; assay type: cell-based, Acinetobacter baumannii
Summary of the method: as §1

[10] = system: MDREC 1229; test: microbe, parasite or virus in culture; assay type: cell-based, Escherichia coli
Summary of the method: as §1

[11] = system: E. coli; test: microbe, parasite or virus in culture; assay type: cell-based, Escherichia coli; details: 16 h
Summary of the method: as §1

[12] = system: MRSA 3114; assay type: cell-based, Staphylococcus aureus; details: 3114
Summary of the method: as §1

[13] = system: MRSA 3126; assay type: cell-based, Staphylococcus aureus; details: 3126
Summary of the method: as §1

[14] = system: P. aeruginosa; test: microbe, parasite or virus in culture; assay type: cell-based, Pseudomonas aeruginosa
Summary of the method: as §1

[15] = system: MDREC 1229; test: MIC of antibiotic during combined treatment with antimicrobial peptide; assay type: cell-based, Escherichia coli
Summary of the method: as §2

[16] = system: S. typhimurium; test: microbe, parasite or virus in culture; assay type: cell-based, Salmonella typhimurium
Summary of the method: as §1

[17] = erythromycin 4 μg/ml (Conc./MIC 1/8)
[18] = erythromycin 8 μg/ml (Conc./MIC 1/4)
[19] = erythromycin 16 μg/ml (Conc./MIC 1/2)
[20] = erythromycin 32 μg/ml (Conc./MIC 1)
[21] = vancomycin 512 μg/ml (Conc./MIC 1/2)
[22] = vancomycin 1024 μg/ml (Conc./MIC 1)
[23] = peptide treatment concentration 1 μg/ml
[24] = peptide treatment concentration 2 μg/ml
[25] = peptide treatment concentration 4 μg/ml
[26] = peptide treatment concentration 6 μg/ml
[27] = peptide treatment concentration 8 μg/ml
[28] = peptide treatment concentration 16 μg/ml
[29] = peptide treatment concentration 32 μg/ml
[30] = peptide treatment concentration 64 μg/ml

CC[C@H](C)[C@H](NC(=O)[C@H](CCCCN)NC(=O)[C@H](Cc1c[nH]c2ccccc12)NC(=O)[C@@H](N)CCCNC(=N)N)C(=O)N[C@@H](Cc1ccccc1)C(=O)N[C@@H](CCCCN)C(=O)N[C@@H](CCCCN)C(=O)N[C@H](C(=O)N1CCC[C@H]1C(=O)N[C@@H](CCCCN)C(=O)N[C@@H](Cc1ccccc1)C(=O)N[C@@H](CC(C)C)C(=O)N[C@@H](Cc1c[nH]cn1)C(=O)N[C@@H](CCC(=O)O)C(=O)N[C@@H](C)C(=O)N[C@@H](CCCCN)C(=O)N[C@@H](CCCCN)C(=O)N[C@@H](Cc1c[nH]c2ccccc12)C(N)=O)[C@@H](C)CC [PapMA-14, RWK IFK KIP KFL HEA KKW-NH2] (H-RWKIFKKIPKFLHEAKKW-NH2; N-terminus assumed)
32 µg/mL: Minimal inhibitory concentration MIC [2] | Antibiotic MIC, Erythromycin ([6]; erythromycin combined with peptide at 2 μg/ml) | Antibiotic MIC, Erythromycin [15, 24] | Antibiotic MIC, Linezolid [15, 25] | Antibiotic MIC, Vancomycin [15, 26]
0 µg/mL: Antibiotic MIC, Erythromycin ([6]; erythromycin combined with peptide at 8 μg/ml) | Antibiotic MIC, Erythromycin ([6]; erythromycin combined with peptide at 16 μg/ml) | Antibiotic MIC, Erythromycin ([6]; erythromycin combined with peptide at 32 μg/ml) | Antibiotic MIC, Erythromycin ([6]; erythromycin combined with peptide at 64 μg/ml) | Antibiotic MIC, Linezolid ([6]; linezolid combined with peptide at 8 μg/ml) | Antibiotic MIC, Linezolid ([6]; linezolid combined with peptide at 16 μg/ml) | Antibiotic MIC, Linezolid ([6]; linezolid combined with peptide at 32 μg/ml) | Antibiotic MIC, Linezolid ([6]; linezolid combined with peptide at 64 μg/ml) | Antibiotic MIC, Vancomycin ([6]; vancomycin combined with peptide at 8 μg/ml) | Antibiotic MIC, Vancomycin ([6]; vancomycin combined with peptide at 16 μg/ml) | Antibiotic MIC, Vancomycin ([6]; vancomycin combined with peptide at 32 μg/ml) | Antibiotic MIC, Vancomycin ([6]; vancomycin combined with peptide at 64 μg/ml) | Peptide MIC during treatment with antibiotic [7, 20] | Peptide MIC during treatment with antibiotic ([7]; linezolid […] (Conc./MIC 1)) | Peptide MIC during treatment with antibiotic [7, 22] | Peptide MIC during treatment with erythromycin [8, 20] | Peptide MIC during treatment with linezolid ([8]; linezolid 512 μg/ml (Conc./MIC 1)) | Antibiotic MIC, Erythromycin [15, 28] | Antibiotic MIC, Linezolid [15, 28] | Antibiotic MIC, Vancomycin [15, 28] | Antibiotic MIC, Erythromycin [15, 29] | Antibiotic MIC, Linezolid [15, 29] | Antibiotic MIC, Vancomycin [15, 29] | Antibiotic MIC, Erythromycin [15, 30] | Antibiotic MIC, Linezolid [15, 30] | Antibiotic MIC, Vancomycin [15, 30]
2 µg/mL: Antibiotic MIC, Erythromycin ([6]; erythromycin combined with peptide at 4 μg/ml) | Antibiotic MIC, Linezolid ([6]; linezolid combined with peptide at 6 μg/ml) | Peptide MIC during treatment with antibiotic [7, 18] | Peptide MIC during treatment with antibiotic ([7]; linezolid 32 μg/ml (Conc./MIC 1/8)) | Peptide MIC during treatment with antibiotic ([7]; linezolid 64 μg/ml (Conc./MIC 1/4)) | Peptide MIC during treatment with antibiotic ([7]; vancomycin […] (Conc./MIC 1/8)) | Peptide MIC during treatment with erythromycin [8, 18] | Peptide MIC during treatment with linezolid ([8]; linezolid 64 μg/ml (Conc./MIC 1/8)) | Peptide MIC during treatment with vancomycin ([8]; vancomycin […] (Conc./MIC 1/4)) | Peptide MIC during treatment with vancomycin ([8]; vancomycin […] (Conc./MIC 1/8))
16 µg/mL: Minimal inhibitory concentration MIC [1] | Minimal inhibitory concentration MIC [3] | Antibiotic MIC, Vancomycin ([6]; vancomycin combined with peptide at 4 μg/ml) | Minimal inhibitory concentration MIC [9] | Minimal inhibitory concentration MIC [10] | Peptide MIC, peptide alone [10] | Antibiotic MIC, Linezolid [15, 26] | Antibiotic MIC, Linezolid [15, 27] | Minimal inhibitory concentration MIC [16]
0.25 µg/mL: Peptide MIC during treatment with antibiotic [7, 21]
64 µg/mL: Minimal inhibitory concentration MIC [14]
4 µg/mL: Peptide MIC during treatment with antibiotic [7, 17] | Peptide MIC during treatment with erythromycin [8, 17] | Antibiotic MIC, Erythromycin [15, 26]
>128 µg/mL: Minimal inhibitory concentration MIC [4] | Minimal inhibitory concentration MIC [5] | Antibiotic MIC, Linezolid ([6]; linezolid combined with peptide at 1 μg/ml) | Antibiotic MIC, Vancomycin ([6]; vancomycin combined with peptide at 1 μg/ml) | Minimal inhibitory concentration MIC [12] | Minimal inhibitory concentration MIC [13] | Antibiotic MIC, Linezolid [15, 23] | Antibiotic MIC, Vancomycin [15, 23] | Antibiotic MIC, Vancomycin [15, 24]
128 µg/mL: Antibiotic MIC, Erythromycin ([6]; erythromycin combined with peptide at 1 μg/ml) | Antibiotic MIC, Linezolid ([6]; linezolid combined with peptide at 2 μg/ml) | Antibiotic MIC, Vancomycin ([6]; vancomycin combined with peptide at 2 μg/ml) | Antibiotic MIC, Erythromycin [15, 23] | Antibiotic MIC, Linezolid [15, 24] | Antibiotic MIC, Vancomycin [15, 25]
higher level than the PapMA-1 peptide: Synergistic effect of antibacterial activity with existing antibiotics compared with PapMA-1 ([6]; E. coli and MDREC1229)
8 µg/mL: Antibiotic MIC, Linezolid ([6]; linezolid combined with peptide at 4 μg/ml) | Antibiotic MIC, Vancomycin ([6]; vancomycin combined with peptide at 6 μg/ml) | Minimal inhibitory concentration MIC [11] | Antibiotic MIC, Erythromycin [15, 25] | Antibiotic MIC, Vancomycin [15, 27]
0.5 µg/mL: Peptide MIC during treatment with antibiotic ([7]; vancomycin […] (Conc./MIC 1/4))
1 µg/mL: Antibiotic MIC, Erythromycin ([6]; erythromycin combined with peptide at 6 μg/ml) | Peptide MIC during treatment with antibiotic [7, 19] | Peptide MIC during treatment with antibiotic ([7]; linezolid […] (Conc./MIC 1/2)) | Peptide MIC during treatment with erythromycin [8, 19] | Peptide MIC during treatment with linezolid ([8]; linezolid […] (Conc./MIC 1/2)) | Peptide MIC during treatment with linezolid ([8]; linezolid […] (Conc./MIC 1/4)) | Peptide MIC during treatment with vancomycin [8, 21] | Peptide MIC during treatment with vancomycin [8, 22] | Antibiotic MIC, Erythromycin [15, 27]
